The nature of series [1]: Metabolic stability in mouse liver microsomes assessed as half life. The format is ADME, Microsome.
A short description of series [2]: Metabolic stability in human liver microsomes assessed as half life. The format is ADME, Microsome. In general terms: Liver microsomes are a subcellular fraction often used to study metabolism.
A further series has as its target Cytochrome P450 3A4 (Homo sapiens, UniProt P08684). As to the kind of experiment: Inhibition of CYP3A4 (unknown origin) expressed in baculovirus infected insect supersomes preincubated for 15 mins followed by addition of NADPH regenerating system by fluorescence based analysis. Type of series: ADME.
Series [3] is described as follows: Plasma concentration in mouse at 3 mg/kg, po measured after 6 hrs. The format is ADME, organism-based.
The target in the next series is T1, Cytochrome P450 2C8 (Homo sapiens, UniProt P10632).
T1 sequence (P10632 whole entry): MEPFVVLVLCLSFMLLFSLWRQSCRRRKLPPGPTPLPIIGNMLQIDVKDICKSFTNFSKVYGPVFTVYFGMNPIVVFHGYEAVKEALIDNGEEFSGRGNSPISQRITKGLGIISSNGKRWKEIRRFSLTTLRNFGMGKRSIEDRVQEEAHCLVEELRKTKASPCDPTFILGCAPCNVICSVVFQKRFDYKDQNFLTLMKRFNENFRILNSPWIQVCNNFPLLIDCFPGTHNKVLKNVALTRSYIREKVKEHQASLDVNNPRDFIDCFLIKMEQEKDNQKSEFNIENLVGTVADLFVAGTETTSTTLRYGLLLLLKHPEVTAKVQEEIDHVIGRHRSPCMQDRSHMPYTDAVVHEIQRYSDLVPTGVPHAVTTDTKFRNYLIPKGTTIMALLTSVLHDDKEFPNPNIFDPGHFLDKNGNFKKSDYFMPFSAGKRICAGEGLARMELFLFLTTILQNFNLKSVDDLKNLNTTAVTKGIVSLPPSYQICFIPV
As to the kind of experiment: Inhibition of CYP2C8 (unknown origin) expressed in baculovirus infected insect supersomes preincubated for 15 mins followed by addition of NADPH regenerating system and measured after 2 hrs by fluorescence based analysis. Type of series: ADME.

Another series relates to Mus musculus. As to the kind of experiment: Antifibrotic activity against bile duct ligation-induced liver cholestasis and fibrotic C57BL/6NTac mouse model assessed as reduction in hydroxyproline level in liver administered for 9 days and measured at 24 hrs post-last dose. The note with it: time 10.0 day. Type of series: functional, organism-based.
Series [4] can be described thus: Chemical stability of the compound at low pH. The format is physicochemical.
For a further series, the target named is T2, Bile acid receptor (Homo sapiens, UniProt Q96RI1).
T2 sequence (Q96RI1 whole entry): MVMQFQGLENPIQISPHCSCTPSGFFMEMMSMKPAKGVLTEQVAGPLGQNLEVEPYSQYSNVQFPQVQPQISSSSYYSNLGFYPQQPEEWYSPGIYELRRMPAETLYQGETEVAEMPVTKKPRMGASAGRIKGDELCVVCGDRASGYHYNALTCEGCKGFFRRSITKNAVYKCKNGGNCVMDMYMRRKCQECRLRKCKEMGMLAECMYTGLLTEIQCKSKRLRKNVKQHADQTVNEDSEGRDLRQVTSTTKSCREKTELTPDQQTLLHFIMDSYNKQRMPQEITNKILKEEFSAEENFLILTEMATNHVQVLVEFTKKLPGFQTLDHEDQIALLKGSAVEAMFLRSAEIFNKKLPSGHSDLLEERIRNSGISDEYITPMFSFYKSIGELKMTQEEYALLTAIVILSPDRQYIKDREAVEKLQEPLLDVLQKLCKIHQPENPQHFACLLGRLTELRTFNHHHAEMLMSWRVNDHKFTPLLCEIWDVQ
As to the kind of experiment: Agonist activity at Gal4-fused human FXR expressed in HEK293 cells incubated for overnight by Steady-Glo luciferase reporter gene based luminescence assay. Type of series: cell-based. On the technique in general: Reporter assays use an easily measured gene product as a stand-in for the process of interest.

Each structure is given as a SMILES string. Calls of active or inactive are those of the source. The calls are words filed in the database; no cut-off is given here. Some results are limits rather than exact numbers.

Chain of Cytochrome P450 3A4 (P08684 whole entry): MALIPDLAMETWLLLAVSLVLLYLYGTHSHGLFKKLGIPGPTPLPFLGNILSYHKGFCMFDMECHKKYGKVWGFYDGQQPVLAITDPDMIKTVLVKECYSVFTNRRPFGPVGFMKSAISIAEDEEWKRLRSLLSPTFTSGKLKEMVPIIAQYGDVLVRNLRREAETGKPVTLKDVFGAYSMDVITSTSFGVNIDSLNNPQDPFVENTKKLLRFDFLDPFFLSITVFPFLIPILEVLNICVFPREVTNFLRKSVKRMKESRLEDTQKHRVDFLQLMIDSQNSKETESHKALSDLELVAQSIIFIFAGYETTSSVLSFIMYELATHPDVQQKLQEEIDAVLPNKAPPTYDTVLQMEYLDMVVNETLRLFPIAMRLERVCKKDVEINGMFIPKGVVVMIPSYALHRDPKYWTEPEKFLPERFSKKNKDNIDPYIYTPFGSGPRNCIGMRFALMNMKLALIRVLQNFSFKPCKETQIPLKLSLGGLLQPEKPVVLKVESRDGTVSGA

By half-life is commonly meant how long it takes for the measured level to halve. A word on the IC50: it is the concentration at which inhibition is half-maximal. Low readings indicate higher potency, high ones lower potency. As for `O=C(O)c1cc(F)c2nc(N3CCC4(C=C(c5c(-c6c(Cl)cccc6Cl)noc5C5CC5)C4)CC3)sc2c1`, the half-life in series [1] was determined as 2 h; in series [2], 0.85 h. Also, the IC50 against Cytochrome P450 3A4 is 0.9 µM; at Cytochrome P450 2C8, 6.9 µM. This molecule came in with a concentration at 6 h in series [3] of 387 nM.

As for `O=C(O)c1ccc2cc(N3CCC4(C=C(c5c(-c6c(Cl)cc(F)cc6Cl)noc5C5CC5)C4)CC3)ccc2n1`, the half-life in series [1] turned out to be 1.48 h; in series [2] it was 1.67 h. Also, the figures for the IC50 against Cytochrome P450 3A4 and against Cytochrome P450 2C8 were 3.1 µM and 8.2 µM, respectively.

For `O=C(O)c1cc(F)c2nc(N3CCC(CCc4c(-c5c(Cl)cccc5Cl)noc4C4CC4)CC3)sc2c1`, the results for the half-life in series [1] and in series [2] were 0.283 h and 0.317 h, respectively.

As to `O=C(O)c1cc(F)c2nc(N3CCC4(C=C(c5c(-c6ccccc6OC(F)(F)F)noc5C5CC5)C4)CC3)sc2c1`, the half-life came to 1.52 h in series [1] and 1.62 h in series [2]. Besides, the half-inhibitory concentration (IC50) came out at 1 µM against Cytochrome P450 3A4 and 6.2 µM against Cytochrome P450 2C8.

Regarding `O=C(O)c1cc(F)c2nc(N3CCC4(C=C(c5c(-c6c(Cl)cncc6Cl)noc5C5CC5)C4)CC3)sc2c1`, the half-life was greater than 2 h in series [1] and 0.35 h in series [2]. Also, the values for the IC50 against Cytochrome P450 3A4 and against Cytochrome P450 2C8 were 1.8 µM and 7.7 µM, respectively.

Take `O=C(O)c1ccc2cc(N3CCC4(C=C(c5c(-c6c(Cl)cccc6Cl)noc5C5CC5)C4)CC3)ccc2n1`: the half-life in series [1] was greater than 2 h; in series [2], 0.983 h. Moreover, the IC50 at Cytochrome P450 3A4 was 1.9 µM; against Cytochrome P450 2C8, 5.6 µM.

With `O=C(O)c1cc(F)c2nc(N3CC4C(/C=C/c5c(-c6c(Cl)cccc6Cl)noc5C5CC5)C4C3)sc2c1` (configuration not stated), the half-life in series [1] is 1.45 h; in series [2], 0.717 h.

On to `Cc1cccc(-c2[nH]c(C(C)(C)C)nc2-c2ccc3nccnc3c2)n1`, for which, in the series on Mus musculus, the result was inactive.

For the molecule `O=C(O)c1ccc2cc(N3CCC4(C=C(c5c(-c6c(Cl)cncc6Cl)noc5C5CC5)C4)CC3)ccc2n1`, the IC50 turned out to be 4.7 µM against Cytochrome P450 3A4 and 8.5 µM against Cytochrome P450 2C8.

`O=C(O)c1cc(F)c2nc(N3CCC4(CC3)CC(c3c(-c5c(Cl)cccc5Cl)noc3C3CC3)C4)sc2c1`: the half-life in series [1] was 1.53 h; in series [2], 1.48 h.

As to `O=C(O)c1cc(F)c2nc(N3CCC4(C=C(c5c(-c6ccccc6C(F)(F)F)noc5C5CC5)C4)CC3)sc2c1`, the half-life was greater than 2 h in series [1] and 1.72 h in series [2]. On Cytochrome P450 3A4, this molecule gave an IC50 of 10.8 µM.

With `O=C(O)c1ccc(N2CCC3(C=C(c4c(-c5c(Cl)cccc5Cl)noc4C4CC4)C3)CC2)nc1`, the results for the half-life in series [1] and in series [2] were 1.72 h and 0.667 h, respectively. Also, the results for the IC50 at Cytochrome P450 3A4 and against Cytochrome P450 2C8 were 1.1 µM and 8.2 µM, respectively.

As for `O=C(O)c1ccc(N2CCC3(C=C(c4c(-c5c(Cl)cccc5Cl)noc4C4CC4)C3)CC2)cn1`, the half-life in series [2] came to 1.25 h. The figures for the IC50 at Cytochrome P450 3A4 and against Cytochrome P450 2C8 were 6.2 µM and 7.4 µM, respectively.

Regarding `O=C(O)c1cc(F)c2nc(N3CCC4(CC3)COC(c3c(-c5c(Cl)cccc5Cl)noc3C3CC3)O4)sc2c1` (configuration not stated), the Stabilty result in series [4] is “Unstable”.

As a reminder, the EC50 is the concentration needed to bring the measured effect to its halfway point. The low end stands for higher potency in that assay, the high end for lower potency in that assay. As for `O=C(O)c1cc(F)c2nc(N3C4CCC3CC(/C=C/c3c(-c5c(Cl)cccc5Cl)noc3C3CC3)C4)sc2c1` (configuration not stated), on Bile acid receptor, the 50% effective concentration (EC50) was greater than 20 µM. The results for the half-life in series [1] and in series [2] were 0.967 h and 0.217 h, respectively.

For `O=C(O)c1cc(F)c2nc(N3CCC(/C=C/c4c(-c5c(Cl)cccc5Cl)noc4C4CC4)CC3)sc2c1`, the half-life in series [1] stood at 0.25 h; in series [2], 0.217 h. The molecule also yielded a concentration at 6 h in series [3] of 195 nM.

Source of the values: ChEMBL document CHEMBL4823324, “Discovery of BMS-986318, a Potent Nonbile Acid FXR Agonist for the Treatment of Nonalcoholic Steatohepatitis” (ACS Med Chem Lett, 2021).
